Key:
[1] = tested on: Botryosphaeria berengeriana; assay: microbe, parasite or virus in culture; assay type: cell-based; conditions: read-out: Inhibition rate (%)
Acute skin test = assay type: in vivo, rat; conditions: in vivo, topical
Description: (§1) The toxicological indexes of the compound were tested following the standard GB15670-1995 “Toxicological test methods of pesticides for registration” by Tongji Medical College, Huazhong University of Science and Technology.

rat = assay: Acute skin test; assay type: in vivo; conditions: rat
Description: as §1

Cercospora arachidicola = assay: microbe, parasite or virus in culture; assay type: cell-based; conditions: Mycosphaerella arachidis, read-out: Inhibition rate (%)
Sclerotinia sclerotirum = assay: microbe, parasite or virus in culture; assay type: cell-based; conditions: read-out: Inhibition rate (%)
Phytophthora capsici = assay: microbe, parasite or virus in culture; assay type: cell-based; conditions: read-out: Inhibition rate (%)
Ames test = assay type: cell-based
Description: as §1

Gibberella zea = assay: organism not typed; assay type: cell-based; conditions: read-out: Inhibition rate (%)
quail = assay: Acute oral toxicity test on quail; assay type: in vivo
Description: After acute toxicity and Ames test had been finished, environmental toxicity test was conducted following “Guideline for Environmental Safety Evaluation of Chemical Pesticides” of Agriculture Ministry of China by Shenyang Chemical Research Institute/Supervision and Test Center for Pesticide Safety Evaluation and Quality Control.

[2] = tested on: Cucumber gray mold (Q503001); assay: In vivo micro-screening assay
Description: In Vivo Micro-Screening Assay
To further study the fungicidal spectrum of the compound of Formula (I), indoor in vivo micro-screening assay were carried out on cucumber gray mold, cucumber scab, cucumber sclerotinia rot, cucumber brown spot, pepper phytophthora blight, and rice sheath blight.
Medicament to be tested and medicament of control groups were prepared as needed in a sunny morning. Cucumber gray mold, cucumber scab, cucumber brown spot, cucumber sclerotinia rot, and rice sheath blight were medicated by spray, and after air dry, pathogens of cucumber scab and of cucumber brown spot were inoculated through spraying spore suspension respectively, pathogens of cucumber gray mold, of cucumber sclerotinia rot, and of rice sheath blight were inoculated through lawn foliage. Pepper phytophthora blight was medicated and inoculated by root-irrigation. Subsequently, all seedlings were cultured in wet environment.
After the disease of control groups were serious, spot area, disease index, and the diseased seedling rate were investigated to calculate the efficacy. Cucumber scab, cucumber brown spot, and pepper phytophthora blight were investigated by grading method. The spot extension area of cucumber gray mold and of rice sheath blight was investigated. The diseased seedling rate of cucumber sclerotinia rot was investigated. Disease index=Σ(amount of infected diseased leaves in a grade×relative value of the grade)×100/(total amount of leaves×9); Diseased seedling rate (%)=(total amount of seedlings−amount of diseased seedlings)/total amount of seedlings×100% Prevention and treatment effect (%)=(disease of control group−disease of experiment group)/disease of control group×100%

NADH oxidase (NOX) = NADH oxidase (NOX) (Sus scrofa, UniProt P24964); assay: Enzyme activity test, NOX; assay type: biochemical; conditions: azoxystrobin as control agent
Chain of NADH oxidase (NOX) (P24964 whole entry): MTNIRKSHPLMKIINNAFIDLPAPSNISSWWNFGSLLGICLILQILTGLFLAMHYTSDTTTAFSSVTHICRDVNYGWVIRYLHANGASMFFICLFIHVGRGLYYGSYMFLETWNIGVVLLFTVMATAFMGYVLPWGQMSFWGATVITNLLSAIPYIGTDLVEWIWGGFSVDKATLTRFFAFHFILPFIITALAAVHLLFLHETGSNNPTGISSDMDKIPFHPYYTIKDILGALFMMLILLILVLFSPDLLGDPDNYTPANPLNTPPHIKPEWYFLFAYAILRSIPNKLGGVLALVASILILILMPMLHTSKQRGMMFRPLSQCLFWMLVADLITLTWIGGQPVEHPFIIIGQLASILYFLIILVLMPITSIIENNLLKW
Description: Take NADH oxidase (NOX), succinate-cytochrome C oxidase (SCO), and Complex III as target enzymes, the inhibitory activity of the compound of Formula (I) was tested.
^a NOX is generally used to detect an inhibitor of Complex I and Complex III; SCO is generally used to detect an inhibitor of Complex II and Complex III. Thus, an inhibitor of Complex III should have inhibitory activity on the two enzymes.

[3] = tested on: Colletotrichum gloeosporioides (first entry, r49); assay: In vitro inhibition, pathogens from tropical plants; assay type: cell-based
Description: (§2) 5 wt % formulation of the active compound of Formula (I) was prepared into a solution (300 mg/L). To a sterilized Erlenmeyer flask, 2 mL of the solution and 18 mL of PDA culture medium (50° C.) were added. The mixture was shaken uniformly and dumped into two dishes whose diameter was 9 cm to yield two toxic PDA culture mediums having a concentration of 30 mg/L. Various cultured pathogens were punched at the edge of colony by a puncher having a diameter of 5 mm respectively, and the obtained pieces were transferred to the center of the toxic PDA culture medium by an inoculating needle and cultured in an incubator at 25° C. Repeat the above steps. According to the growth status of CK colony, the colony diameter of pathogens was measured by crossing method with a caliper and thereby a corrected inhibition percentage was calculated.
(§3) For each colony, diameter was measured twice by crossing method and the average was practicable. The colony growth inhibition rate was calculated as follows: Colony growth inhibition rate %=(diameter of CK colony−diameter of target colony)×100/diameter of CK colony
(§4) Following the above method, as targets 17 pathogens originated from tropical plants were tested. The pathogens were Rhizopus sp., Aspergillus, Colletotrichum gloeosporioides Penz, Banana Fusarium wilt, Colletouichum coccodes, Hughas, B. heveas, Cucumber mosaic virusstrain banana, Banana Sigatoka Leaf Spot Disease, Colletotrichum gloeosporioides, Colletotrichum musae (Berk & Curt) Arx, Botryodiplodia theobromae, Cladosporium cucumerinum Ellis et Arthur, Periconia hevenae, Colletotrichum gloeosporioides, B. cinerea, Diplodia natalensis, and Curvularia.

Diplodia natalensis = assay: as above; assay type: cell-based
Description: as §2, §3, §4

Periconia hevenae = assay: as above; assay type: cell-based
Description: as §2, §3, §4

Helminthosporum maydis = assay: organism not typed; assay type: cell-based
mice spermatogonial = assay: Chromosome aberration test of mice spermatogonial; assay type: in vivo
Description: as §1

[4] = 0.1 mg/L, read-out: Inhibition rate (%)
[5] = 1 mg/L, read-out: Inhibition rate (%)
[6] = 5 mg/L, read-out: Inhibition rate (%)
[7] = 10 mg/L, read-out: Inhibition rate (%)
[8] = 20 mg/L, read-out: Inhibition rate (%)

CO/C=C(/C(=O)OC)c1ccccc1CSc1nc2cc(OC)ccc2s1 [Compound of Formula (I), (E)-methyl 3-methoxy-2-(2-((5-methoxy-benzothiazol-2-ylthio)methyl)phenyl)acrylate]
inhibition at 0.3 µg/mL ([1]; 0.3 mg/L): 44.1%
inhibition at 3 µg/mL ([1]; 3 mg/L): 49.6%
inhibition at 30 µg/mL ([1]; 30 mg/L): 63.6%
LD50 (Acute skin test; Female rat): > 2000 mg/kg
LD50 (Acute skin test; Male rat): > 2000 mg/kg
Toxicity (acute skin test) (rat): Low toxicity
inhibition at 0.3 µg/mL (Cercospora arachidicola; 0.3 mg/L): 30.9%
inhibition at 3 µg/mL (Cercospora arachidicola; 3 mg/L): 35.7%
inhibition at 30 µg/mL (Cercospora arachidicola; 30 mg/L): 40.5%
inhibition at 0.3 µg/mL (Sclerotinia sclerotirum; 0.3 mg/L): 50.8%
inhibition at 3 µg/mL (Sclerotinia sclerotirum; 3 mg/L): 61%
inhibition at 30 µg/mL (Sclerotinia sclerotirum; 30 mg/L): 80%
inhibition at 0.3 µg/mL (Phytophthora capsici; 0.3 mg/L): 0%
inhibition at 3 µg/mL (Phytophthora capsici; 3 mg/L): 23.1%
inhibition at 30 µg/mL (Phytophthora capsici; 30 mg/L): 28.9%
Ames test (Ames test): Negative
inhibition at 0.3 µg/mL (Gibberella zea): 34.9%
inhibition at 3 µg/mL (Gibberella zea): 45.9%
inhibition at 30 µg/mL (Gibberella zea): 54.6%
LC50 (quail): LC50 > 1100 mg/kg.bw
Efficacy (%) ([2]; 100 mg/L): 93.69%
Spot area (mm^2) ([2]; 100 mg/L): 7.78 mm^2
Efficacy (%) ([2]; 500 mg/L): 97.71%
Spot area (mm^2) ([2]; 500 mg/L): 2.82 mm^2
inhibitory activity on NOX compared with azoxystrobin (NADH oxidase (NOX)): much higher inhibitory activity
EC50 [3]: 1.97 µg/mL
inhibition at 0.1 µg/mL [3, 4]: 18.2%
inhibition at 1 µg/mL [3, 5]: 42.4%
inhibition at 5 µg/mL [3, 6]: 55.9%
inhibition at 10 µg/mL [3, 7]: 69.4%
inhibition at 20 µg/mL [3, 8]: 83.2%
EC50 (Diplodia natalensis): 1.7 µg/mL
inhibition at 0.1 µg/mL (Diplodia natalensis; [4]): 20.7%
inhibition at 1 µg/mL (Diplodia natalensis; [5]): 40.2%
inhibition at 5 µg/mL (Diplodia natalensis; [6]): 60.7%
inhibition at 10 µg/mL (Diplodia natalensis; [7]): 73.7%
inhibition at 20 µg/mL (Diplodia natalensis; [8]): 82.3%
EC50 (Periconia hevenae): 0.378 µg/mL
inhibition at 0.1 µg/mL (Periconia hevenae; [4]): 33.2%
inhibition at 1 µg/mL (Periconia hevenae; [5]): 66.4%
inhibition at 5 µg/mL (Periconia hevenae; [6]): 74.2%
inhibition at 10 µg/mL (Periconia hevenae; [7]): 77.6%
inhibition at 15 µg/mL (Periconia hevenae; 15 mg/L, read-out: Inhibition rate (%)): 81.7%
in vitro effect (Helminthosporum maydis): particularly effective
inhibition at 0.3 µg/mL (Helminthosporum maydis; 0.3 mg/L, read-out: Inhibition rate (%)): 86.1%
inhibition at 3 µg/mL (Helminthosporum maydis; 3 mg/L, read-out: Inhibition rate (%)): 100%
inhibition at 30 µg/mL (Helminthosporum maydis; 30 mg/L, read-out: Inhibition rate (%)): 100%
Chromosome aberration test of mice spermatogonial (mice spermatogonial): Negative

From patent US9422254B2, “Methoxyacrylate-based fungicide and methods for preparing and using the same” (priority 2008, dated 2016)
